# Patent publication US10842794B2, “Use of Sigma-1 receptor agonist compounds” (MTA TÁMOGATOTT KUTATÓCSOPORTOK IRODÁJA, priority 2014, dated 2020)
# Legend:
# [1] = tested on: NRK49F rat kidney interstitial fibroblast cell lines; assay: PDGFB-induced myofibroblast proliferation (MTT); type: cell-based; conditions: 10 ng/mL PDGFB, 24 hours, different concentrations of agonist
# [2] = tested on: Streptozotocin induced type 1 diabetic rats; assay: Diabetic rat kidney: Masson's trichrome staining, tubulointerstitial fibrosis; type: in vivo
# [3] = tested on: rat model of bleomycin-induced lung fibrosis; assay: Rat model of bleomycin induced pulmonary fibrosis: αSMA protein in lung, western blot; type: in vivo; conditions: fluvoxamine 20 mg/bwkg/day, three weeks after bleomycin
# Protocol: (Bars represent Mean±SEM, n=6/group).
# For the induction of pulmonary fibrosis male Wistar rats were anesthetized. Bleomycin (5 mg/bwkg in a 300 μl solution of isotonic saline) or 300 μl isotonic saline was administered into the trachea using a 30G needle.
# Animals were randomly divided into 4 groups of 6 rats each as follows (i)—control group was sham operated, received isotonic saline per os daily for 3 weeks, (ii) vehicle treated group: received isotonic saline per os daily for 3 weeks after the induction of lung fibrosis, (iii) fluvoxamine treated group: received fluvoxamine (20 mg/bwkg/day per os for 3 weeks after the induction of lung fibrosis), (iv) fluvoxamine+NE100 treated group: received fluvoxamine (20 mg/bwkg/day; per os) and 1 mg/bwkg/day NE100 (i.p. for 3 weeks after the induction of lung fibrosis. […]
# Tissue samples were lysed in buffer containing leupeptin, aprotinin, Triton X-100, Tris-HCl, Ethylene glycol-bis (2-aminoethylether),N,N,N′,N′-tetraacetic-acid, NaF, Phenylmethylsulphonylfluoride and Na-orthovanadate (each substance were purchased from Sigma-Aldrich Co., St. Louis, Mo., USA) and centrifuged to pellet nuclei and large cellular fragments. Protein concentration of the supernatants was determined by Bradford assay (Bio-Rad Laboratories, Hercules, Calif., USA). […] Bands were analyzed with Quantity One software version 4.6.9. […]
# [4] = tested on: Streptozotocin induced type 1 diabetic rats; assay: Rat model of streptozotocin induced diabetic nephropathy: metabolic and renal parameters; type: in vivo; conditions: for Blood Creatinine / Blood Glucose / Blood Urea Nitrogen / FeNa / Fructosamine / GFR / Urinary albumin excretion: Mean±SEM
# Protocol: All substances were purchased from Sigma-Aldrich Ltd. (Budapest, Hungary). Diabetes was induced in male Wistar rats by 65 mg/bwkg streptozotocin (STZ) i.v. (dissolved in 0.1 M citrate buffer; pH 4.5). Animals were considered diabetic if blood glucose concentrations increased to 15 mmol/L within 72 h after STZ injection and remained elevated. Animals were randomly divided into groups (n=10-12/group) and received by per os (i) fluvoxamine (20 mg/bwkg/day) for 7 weeks; (ii) fluvoxamine (20 mg/bwkg/day) for 2 weeks from the 5th week of diabetes, (iii) fluvoxamine (2 mg/bwkg/day) for 2 weeks from the 5th week of diabetes; or (iv) vehicle (isotonic saline). […] Non-diabetic age-matched control animals were injected with citrate buffer and sacrificed after 7 weeks (n=8-10/group).
# Before and during and at the end of treatment period rats were placed into metabolic cages to collect 24-hour urinary samples. After 2 weeks of treatment all rats were anesthesized, blood and urinary samples were collected and the kidneys were removed, weighed and a section fixed in formalin (4%, pH=7.4) for histology and the remained immediately snap-frozen for further investigations.
# Serum metabolic (glucose, fructoseamine, total and HDL-cholesterol, triglycerides) and renal functional parameters from rat serum (sodium, potassium, creatinine, BUN, GFR and proteinuria) were determined with commercially available kits on a Hitachi 912 photometric chemistry analyzer. Random urine and 24-hour urine samples were also measured. Urinary protein to creatinine ratio was also calculated.
# [5] = tested on: human trabecular meshwork-5 (HTM-5) cells; assay: Actin cytoskeleton rearrangement in HTM-5 cells (phalloidin F-actin staining); type: cell-based; conditions: 24 h, 20 ng/mL PDGF and 10 μM FLU
# [6] = tested on: mice with unilateral ureter obstruction (UUO); assay: Mice model of unilateral ureteral obstruction (UUO): Masson's trichrome, tubulointerstitial fibrosis; type: in vivo; conditions: fluvoxamine 20 mg/bwkg/day for one week, 7 days after UUO
# [7] = tested on: Streptozotocin induced type 1 diabetic rats; assay: Diabetic rat kidney: Sirius Red staining of ECM components; type: in vivo; conditions: long term 7-weeks fluvoxamine treatment
# [8] = tested on: NRK49F myofibroblasts; conditions: all applied concentrations, even the smallest 1 μM
# Protocol: In 6-well plates of NRK49F myofibroblasts (6×10^6 cells/well) TGF-β (1 nM) induced production of fibrillar components of the extracellular matrix was measured by Sirius Red staining. To investigate the effect of S1R agonist compounds a group of cells was treated for 48 hours with the various S1R agonists. Solvent treated cells served as controls. (Bars represent mean±SEM)
# To investigate the deposition of fibrillar collagen Sirius Red staining was performed. 48 hours after the treatment with TGF-β and said compounds the NRK-49F cells were incubated for 10 minutes with Kahle fixative solution. 0.1% Sirius Red (Direct Red 80, Sigma-Aldrich) in 1.2% picric acid was added for each well and plates were incubated for 30 minutes at RT. The unconnected dye molecules were washed with distilled water. The bound Sirius Red dye was eluated with 0.1 M NaOH solution, absorbance was recorded at 540 nm in a Hidex Chameleon Microplate Reader (Triathler, Plate Chameleion, 300SL Lablogic Systems, Inc., Brandon, Fla., USA) used MikroWin program. Vehicle treated cells served as controls.
# [9] = tested on: Streptozotocin induced type 1 diabetic rats; assay: Diabetic rat kidney: fibronectin staining; type: in vivo; conditions: fluvoxamine 20 mg/bwkg/day for 2 weeks from the 5th week of diabetes
# [10] = D7FLU: diabetic rats, fluvoxamine 20 mg/bwkg/day per os for 7 weeks
# [11] = D+FLU2: diabetic rats, fluvoxamine 2 mg/bwkg/day per os for 2 weeks from the 5th week of diabetes
# [12] = D+FLU: diabetic rats, fluvoxamine 20 mg/bwkg/day per os for 2 weeks from the 5th week of diabetes
compound,measurement,setting,value
"COCCCC/C(=N\OCCN)c1ccc(C(F)(F)F)cc1 [fluvoxamine, 2-{[(E)-{5-Methoxy-1-[4-(trifluoromethyl)phenyl]pentylidene}amino]oxy}ethanamine]",PDGF-induced myofibroblast proliferation,[1],significantly decreased PDGF-induced myofibroblast proliferation
same,diabetes induced tubulointerstitial fibrosis (Masson's trichrome),"[2]; fluvoxamine 20 mg 7 weeks, 20 mg 2 weeks, 2 mg 2 weeks per os",ameliorated the diabetes induced tubulointerstitial fibrosis
same,renal structure (Masson's trichrome),[2]; long-term (7-weeks) fluvoxamine 20 mg/bwkg/day,restored almost the normal renal structure
same,bleomycin-induced αSMA production in the lung,[3],successfully reduced bleomycin-induced αSMA production nearly to the level of controls
same,Blood Creatinine,[4]; [10],27.0 ± 2.24 µmol/L
same,Blood Glucose,[4]; [10],50.31 ± 3.7 ^ mmol/L
same,Blood Urea Nitrogen,[4]; [10],17.3 ± 1.49 mmol/L
same,FeNa,[4]; [10],0.40 ± 0.03 %
same,Fructosamine,[4]; [10],276 ± 11.2 µmol/L
same,GFR,[4]; [10],6.77 ± 1.15 mL/min/100 g
same,Urinary albumin excretion,[4]; [10],20.8 ± 9.51 mg/mL
same,Blood Creatinine,[4]; [11],31.8 ± 2.94 µmol/L
same,Blood Glucose,[4]; [11],26.45 ± 3.11 mmol/L
same,Blood Urea Nitrogen,[4]; [11],18.8 ± 1.68 mmol/L
same,FeNa,[4]; [11],0.62 ± 0.12 %
same,Fructosamine,[4]; [11],242 ± 12.8^ μmol/L
same,GFR,[4]; [11],4.73 ± 0.69^ mL/min/100 g
same,Urinary albumin excretion,[4]; [11],24.3 ± 5.77^ mg/mL
same,Blood Creatinine,[4]; [12],34.5 ± 2.74 µmol/L
same,Blood Glucose,[4]; [12],36.6 ± 2.62 mmol/L
same,Blood Urea Nitrogen,[4]; [12],17.3 ± 2.30 mmol/L
same,FeNa,[4]; [12],0.90 ± 0.23 %
same,Fructosamine,[4]; [12],252 ± 18.5^ μmol/L
same,GFR,[4]; [12],3.73 ± 0.49^ mL/min/100 g
same,Urinary albumin excretion,[4]; [12],21.5 ± 4.99 mg/mL
same,renal function in diabetic rats,"[4]; fluvoxamine treatment, specifically the long-term (7-weeks) treatment","remarkably improved renal function, prevented GFR decline"
same,fibrotic rearrangement and active production of actin filaments,[5],blocked
same,tubulointerstitial fibrosis after UUO (Masson's trichrome),[6],decreased tubulointerstitial fibrosis
same,diabetes induced excessive ECM accumulation (Sirius Red),[7],significantly reduced
same,TGFβ-induced ECM production (Sirius Red),[8],significantly inhibited TGFβ-induced ECM production
same,fibrotic lesion (fibronectin staining) versus diabetic rats,[9],smaller
